Measured values as given in the NIST ThermoML archive (doi:10.1016/j.jct.2018.12.012).
Numbers after ± are expanded uncertainties.

Assay: xn = mol fraction of the nth substance listed
Details: 100 kPa, Liquid; for speed of sound: Frequency=3 MHz, Single path-length method; for mass density: Vibrating tube method

CC(C)NC(C)C [diisopropylamine] + CCCC(C)O
Details	mass density, 293.15 K [kg/m3]	mass density, 298.15 K [kg/m3]	mass density, 303.15 K [kg/m3]	mass density, 308.15 K [kg/m3]	speed of sound, 293.15 K [m/s]	speed of sound, 298.15 K [m/s]	speed of sound, 303.15 K [m/s]	speed of sound, 308.15 K [m/s]
x1 = 0.0998	803.093 ± 1.5	798.887 ± 1.5	794.621 ± 1.5	790.277 ± 1.5	1248.1 ± 6.5	1229 ± 6.5	1209.9 ± 6.5	1190.3 ± 6.5
x1 = 0.2001	795.724 ± 1.5	791.357 ± 1.5	786.936 ± 1.5	782.457 ± 1.5	1241.1 ± 6.5	1220.9 ± 6.5	1200.8 ± 6.5	1181.5 ± 6.5
x1 = 0.3	787.848 ± 1.5	783.455 ± 1.5	778.721 ± 1.5	774.03 ± 1.5	1230 ± 6.4	1209.5 ± 6.4	1189.3 ± 6.4	1168.8 ± 6.4
x1 = 0.4001	778.463 ± 1.5	773.871 ± 1.5	769.242 ± 1.5	764.565 ± 1.5	1216.8 ± 6.4	1196.3 ± 6.4	1175.3 ± 6.4	1154.3 ± 6.4
x1 = 0.5006	768.901 ± 1.4	764.237 ± 1.4	759.54 ± 1.4	754.802 ± 1.4	1201.8 ± 6.4	1180.2 ± 6.4	1158.9 ± 6.4	1137.8 ± 6.4
x1 = 0.6001	758.906 ± 1.4	754.192 ± 1.4	749.437 ± 1.4	744.665 ± 1.4	1185.2 ± 6.4	1164 ± 6.4	1142.1 ± 6.4	1120.9 ± 6.4
x1 = 0.678	751.419 ± 1.4	746.673 ± 1.4	741.893 ± 1.4	737.079 ± 1.4	1172.8 ± 6.3	1151 ± 6.3	1129.1 ± 6.3	1107.4 ± 6.3
x1 = 0.7975	738.446 ± 1.4	733.65 ± 1.4	728.827 ± 1.4	723.973 ± 1.4	1152.6 ± 6.3	1130.2 ± 6.3	1108.1 ± 6.3	1086.2 ± 6.3
x1 = 0.8993	728.166 ± 1.4	723.262 ± 1.4	718.39 ± 1.4	713.692 ± 1.4	1132.8 ± 6.3	1110.2 ± 6.3	1087.8 ± 6.3	1063.8 ± 6.3
x1 = 1	717.305 ± 1.4	712.441 ± 1.4	707.55 ± 1.4	702.661 ± 1.4	1116.4 ± 6.3	1093.8 ± 6.3	1071.1 ± 6.3	1043.5 ± 6.3

CCCCNCCCC [dibutylamine] + CCCC(C)O
Details	mass density, 293.15 K [kg/m3]	mass density, 298.15 K [kg/m3]	mass density, 303.15 K [kg/m3]	mass density, 308.15 K [kg/m3]	speed of sound, 293.15 K [m/s]	speed of sound, 298.15 K [m/s]	speed of sound, 303.15 K [m/s]	speed of sound, 308.15 K [m/s]
x1 = 0.1007	804.553 ± 1.5	800.484 ± 1.5	796.354 ± 1.5	792.163 ± 1.5	1257.5 ± 6.5	1238.8 ± 6.5	1220.2 ± 6.5	1201.8 ± 6.5
x1 = 0.1998	799.644 ± 1.5	795.528 ± 1.5	791.368 ± 1.5	787.153 ± 1.5	1261.6 ± 6.5	1243 ± 6.5	1224.2 ± 6.5	1205.4 ± 6.5
x1 = 0.3001	794.588 ± 1.5	790.443 ± 1.5	786.26 ± 1.5	782.034 ± 1.5	1264.1 ± 6.4	1245.1 ± 6.4	1226.2 ± 6.4	1207.6 ± 6.4
x1 = 0.4	789.453 ± 1.5	785.286 ± 1.5	781.088 ± 1.5	776.854 ± 1.5	1265 ± 6.4	1246.3 ± 6.4	1227.2 ± 6.4	1208.3 ± 6.4
x1 = 0.5004	784.348 ± 1.4	780.174 ± 1.4	775.972 ± 1.4	771.739 ± 1.4	1265.7 ± 6.4	1246.5 ± 6.4	1227.4 ± 6.4	1208.4 ± 6.4
x1 = 0.6	779.579 ± 1.4	775.399 ± 1.4	771.197 ± 1.4	766.971 ± 1.4	1266 ± 6.4	1247 ± 6.4	1227.7 ± 6.4	1208.5 ± 6.4
x1 = 0.7004	774.754 ± 1.4	770.581 ± 1.4	766.391 ± 1.4	762.183 ± 1.4	1266.2 ± 6.3	1246.7 ± 6.3	1227.3 ± 6.3	1208.2 ± 6.3
x1 = 0.7993	770.026 ± 1.4	765.866 ± 1.4	761.694 ± 1.4	757.505 ± 1.4	1265.8 ± 6.3	1246.4 ± 6.3	1227.8 ± 6.3	1207.2 ± 6.3
x1 = 0.9004	765.576 ± 1.4	761.434 ± 1.4	757.282 ± 1.4	753.116 ± 1.4	1265.8 ± 6.3	1245.8 ± 6.3	1226 ± 6.3	1206.7 ± 6.3
x1 = 1	759.579 ± 1.4	755.48 ± 1.4	751.374 ± 1.4	747.268 ± 1.4	1260.1 ± 6.3	1240.1 ± 6.3	1220.3 ± 6.3	1200.6 ± 6.3

CCCCNCCCC [dibutylamine] + CCC(C)O
Details	mass density, 293.15 K [kg/m3]	mass density, 298.15 K [kg/m3]	mass density, 303.15 K [kg/m3]	mass density, 308.15 K [kg/m3]	speed of sound, 293.15 K [m/s]	speed of sound, 298.15 K [m/s]	speed of sound, 303.15 K [m/s]	speed of sound, 308.15 K [m/s]
x1 = 0.0995	802.339 ± 1.4	798.045 ± 1.4	793.785 ± 1.4	789.452 ± 1.4	1242.3 ± 6.2	1223.7 ± 6.2	1205 ± 6.2	1186.7 ± 6.2
x1 = 0.2027	796.429 ± 1.4	792.197 ± 1.4	787.914 ± 1.4	783.574 ± 1.4	1249.9 ± 6.2	1231 ± 6.2	1211.9 ± 6.2	1193.6 ± 6.2
x1 = 0.3027	791.522 ± 1.4	787.26 ± 1.4	782.952 ± 1.4	778.597 ± 1.4	1254.5 ± 6.2	1235.3 ± 6.2	1216.2 ± 6.2	1197.1 ± 6.2
x1 = 0.3993	786.764 ± 1.4	782.487 ± 1.4	778.177 ± 1.4	773.83 ± 1.4	1257.8 ± 6.2	1238.8 ± 6.2	1219.4 ± 6.2	1200.1 ± 6.2
x1 = 0.4995	781.846 ± 1.4	777.578 ± 1.4	773.281 ± 1.4	768.951 ± 1.4	1260.6 ± 6.2	1241.1 ± 6.2	1221.7 ± 6.2	1202.6 ± 6.2
x1 = 0.6007	776.991 ± 1.4	772.741 ± 1.4	768.441 ± 1.4	764.17 ± 1.4	1261 ± 6.2	1241.4 ± 6.2	1221.9 ± 6.2	1202.6 ± 6.2
x1 = 0.7	772.61 ± 1.4	768.394 ± 1.4	764.156 ± 1.4	759.896 ± 1.4	1261.9 ± 6.3	1242.7 ± 6.3	1223.1 ± 6.3	1203.9 ± 6.3
x1 = 0.8002	768.643 ± 1.4	764.449 ± 1.4	760.24 ± 1.4	756.011 ± 1.4	1263.6 ± 6.3	1243.7 ± 6.3	1224 ± 6.3	1204.4 ± 6.3
x1 = 0.8989	764.755 ± 1.4	760.595 ± 1.4	756.428 ± 1.4	752.248 ± 1.4	1264.1 ± 6.3	1244.4 ± 6.3	1224.6 ± 6.3	1204.8 ± 6.3
x1 = 1	759.579 ± 1.4	755.48 ± 1.4	751.374 ± 1.4	747.268 ± 1.4	1260.1 ± 6.3	1240.1 ± 6.3	1220.3 ± 6.3	1200.6 ± 6.3

CC(C)NC(C)C [diisopropylamine] + CCC(C)O
Details	mass density, 293.15 K [kg/m3]	mass density, 298.15 K [kg/m3]	mass density, 303.15 K [kg/m3]	mass density, 308.15 K [kg/m3]	speed of sound, 293.15 K [m/s]	speed of sound, 298.15 K [m/s]	speed of sound, 303.15 K [m/s]	speed of sound, 308.15 K [m/s]
x1 = 0.1005	799.801 ± 1.4	795.472 ± 1.4	791.07 ± 1.4	786.592 ± 1.4	1230.8 ± 6.2	1211.7 ± 6.2	1192.3 ± 6.2	1173.4 ± 6.2
x1 = 0.1994	792.039 ± 1.4	787.516 ± 1.4	782.932 ± 1.4	778.279 ± 1.4	1226.2 ± 6.2	1205.7 ± 6.2	1185.3 ± 6.2	1165 ± 6.2
x1 = 0.3003	783.508 ± 1.4	778.829 ± 1.4	774.115 ± 1.4	769.331 ± 1.4	1217.3 ± 6.2	1196.2 ± 6.2	1175.6 ± 6.2	1154 ± 6.2
x1 = 0.3999	774.58 ± 1.4	769.813 ± 1.4	765.003 ± 1.4	760.146 ± 1.4	1205.6 ± 6.2	1183.8 ± 6.2	1162.3 ± 6.2	1141.1 ± 6.2
x1 = 0.5	764.776 ± 1.4	759.954 ± 1.4	755.099 ± 1.4	750.197 ± 1.4	1191 ± 6.2	1169.2 ± 6.2	1147.4 ± 6.2	1125.6 ± 6.2
x1 = 0.5961	755.456 ± 1.4	750.604 ± 1.4	745.72 ± 1.4	740.801 ± 1.4	1176.6 ± 6.2	1154.3 ± 6.2	1132.2 ± 6.2	1110.4 ± 6.2
x1 = 0.6964	745.553 ± 1.4	740.705 ± 1.4	735.88 ± 1.4	731.103 ± 1.4	1160.7 ± 6.3	1139 ± 6.3	1116.3 ± 6.3	1094.2 ± 6.3
x1 = 0.7997	736.007 ± 1.4	731.125 ± 1.4	726.228 ± 1.4	721.299 ± 1.4	1145.2 ± 6.3	1122.7 ± 6.3	1100.3 ± 6.3	1078.3 ± 6.3
x1 = 0.8967	726.62 ± 1.4	721.759 ± 1.4	716.873 ± 1.4	711.96 ± 1.4	1129.7 ± 6.3	1107 ± 6.3	1084.5 ± 6.3	1062.5 ± 6.3
x1 = 1	717.305 ± 1.4	712.441 ± 1.4	707.55 ± 1.4	702.661 ± 1.4	1116.4 ± 6.3	1093.8 ± 6.3	1071.1 ± 6.3	1043.5 ± 6.3
